Values of other authors as cited in article PMC9632963, “Preclinical characterization and phase I clinical trial of CT053PTSA targets MET, AXL, and VEGFR2 in patients with advanced solid tumors” (Frontiers in Immunology, 2022).
Where two headings read alike, the source gives them in different places.

Tests used:
[1] = system: Japanese patients with NSCLC; design: method as in PMID 30718102; settings: cited from earlier work
[2] = design: method as in PMID 27734291; settings: cited from earlier work
MET [3] = system: MET; design: method as in PMID 18089725; settings: NCI-H69 cells; read-out: IC50, phosphorylation of MET; cited from earlier work
MET [4] = system: MET; design: method as in PMID 18089725; settings: HOP92 cells; read-out: IC50, phosphorylation of MET; cited from earlier work
patients = system: patients; design: method as in PMID 30833489; settings: 20/50 patients; cited from earlier work

In the case of `COc1cc2nccc(Oc3ccc(NC(=O)C4(C(=O)Nc5ccc(F)cc5)CC4)cc3)c2cc1OC` [cabozantinib], the “patients with ≥ grade 3 AEs” value ([1]; 16/23 patients) is given as 70%, the “AE: diarrhea” value [1] is given as 78% and the “AE: hypertension” value [1] is given as 87%. The “AE: increased alanine aminotransferase” value [1] was 95%, the “AE: increased aspartate aminotransferase” value [1] was 95% and the “AE: palmar-plantar erythrodysesthesia” value [1] was 100%. The half-life [2] was 108 to 126 h and the “median Tmax” value [2] was 4 h.
For `C[C@@H](Oc1cc(-c2cnn(C3CCNCC3)c2)cnc1N)c1c(Cl)ccc(F)c1Cl` [crizotinib], the IC50 (MET [3]) is listed as […] and the IC50 (MET [4]) is listed as 16 nM.
For `Cc1ccc(C(=O)Nc2ccc(Oc3cc4cnn(C)c4cc3-c3cn[nH]c3)c(F)c2)c(=O)n1-c1ccc(F)cc1` [merestinib], the “patients with ≥ grade 3 TRAEs” value (patients) is listed as 40%.
